We go through one compound from paper PMC3928115, “Organophosphate-Induced Changes in the PKA Regulatory Function of Swiss Cheese/NTE Lead to Behavioral Deficits and Neurodegeneration” (PLoS ONE, 2014).

The structures appear in SMILES notation.

In the test the target is T1, Swiss Cheese (SWS) (Drosophila melanogaster, UniProt Q9U969).
T1 construct: native full-length SWS in fly head homogenate, not purified; sws1 null mutant used as control
Kind of test: esterase activity in fly head homogenates. The following applies: untreated flies; activity very low in sws1 null, raised to about 160% with SWS overexpression. The format is biochemical.

T1 sequence (Q9U969 whole entry): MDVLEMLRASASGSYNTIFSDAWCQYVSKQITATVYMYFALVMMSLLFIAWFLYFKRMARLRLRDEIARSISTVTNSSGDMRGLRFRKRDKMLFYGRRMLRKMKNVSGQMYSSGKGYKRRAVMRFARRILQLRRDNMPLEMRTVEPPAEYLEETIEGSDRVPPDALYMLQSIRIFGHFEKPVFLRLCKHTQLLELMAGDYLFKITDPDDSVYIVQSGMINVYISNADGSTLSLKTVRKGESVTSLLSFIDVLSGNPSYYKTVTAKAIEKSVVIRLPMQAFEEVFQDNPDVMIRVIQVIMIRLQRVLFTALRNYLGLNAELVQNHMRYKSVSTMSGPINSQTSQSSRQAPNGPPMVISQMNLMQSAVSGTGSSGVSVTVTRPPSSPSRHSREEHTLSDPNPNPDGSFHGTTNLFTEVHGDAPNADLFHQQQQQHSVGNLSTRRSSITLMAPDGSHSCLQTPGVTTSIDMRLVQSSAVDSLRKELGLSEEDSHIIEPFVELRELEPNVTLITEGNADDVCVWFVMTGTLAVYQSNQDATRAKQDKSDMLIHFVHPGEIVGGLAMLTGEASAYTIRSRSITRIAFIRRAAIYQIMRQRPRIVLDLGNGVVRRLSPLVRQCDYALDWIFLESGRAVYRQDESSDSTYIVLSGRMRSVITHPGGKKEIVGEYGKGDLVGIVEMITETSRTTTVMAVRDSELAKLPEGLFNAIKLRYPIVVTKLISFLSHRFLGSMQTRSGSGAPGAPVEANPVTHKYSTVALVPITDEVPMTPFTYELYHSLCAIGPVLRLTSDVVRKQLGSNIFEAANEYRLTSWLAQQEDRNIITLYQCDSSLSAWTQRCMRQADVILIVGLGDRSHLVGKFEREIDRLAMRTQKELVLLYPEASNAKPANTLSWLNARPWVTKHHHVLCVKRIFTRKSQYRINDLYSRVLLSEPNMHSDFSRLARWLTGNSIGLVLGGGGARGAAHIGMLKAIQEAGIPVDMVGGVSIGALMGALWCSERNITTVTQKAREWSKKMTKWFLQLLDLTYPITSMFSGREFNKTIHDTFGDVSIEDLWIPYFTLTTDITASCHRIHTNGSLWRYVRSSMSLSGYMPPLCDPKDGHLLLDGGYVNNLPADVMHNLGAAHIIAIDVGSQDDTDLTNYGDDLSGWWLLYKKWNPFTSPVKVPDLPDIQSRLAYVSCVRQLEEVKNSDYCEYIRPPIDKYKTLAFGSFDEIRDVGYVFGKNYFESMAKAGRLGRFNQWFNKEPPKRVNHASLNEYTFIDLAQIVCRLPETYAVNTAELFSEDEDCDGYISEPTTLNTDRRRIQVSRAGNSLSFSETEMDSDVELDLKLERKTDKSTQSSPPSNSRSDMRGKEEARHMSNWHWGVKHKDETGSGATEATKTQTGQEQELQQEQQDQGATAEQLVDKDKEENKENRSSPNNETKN

`CCCCC(=O)Oc1ccccc1` [phenyl valerate]: the “esterase activity in fly head homogenates” value was “hydrolyzing activity against phenyl valerate, a standard substrate to detect NTE activity”.
